Laboratory results published in PMC8306139, “A Novel Dialkylamino-Functionalized Chalcone, DML6, Inhibits Cervical Cancer Cell Proliferation, In Vitro, via Induction of Oxidative Stress, Intrinsic Apoptosis and Mitotic Catastrophe” (Molecules, 2021).
Like-named read-outs stand apart in the source and are kept apart here.

Columns and labels:
LOVO = assay: MTT assay, LOVO; type: cell-based; settings: 72 h, read-out: IC50 ± SD Colon LOVO
Protocol: (§1) The concentration of the tested compounds that produced a 50% inhibition of cell growth (IC50) was determined.
(§2) A panel of cancer cell lines, including cervical (OV2008 and HeLa), breast (MDA-MB-231), lung (A549) and colon (LOVO), prostate (DU145), human embryonic kidney cells (HEK293), human colon fibroblast cells (CRL1459), and Chinese hamster ovary cells (CHO), were grown as adherent monolayers in flasks containing Dulbecco’s modified Eagle medium (DMEM), supplemented with 10% fetal bovine serum (FBS) and 1% penicillin and streptomycin, in a humidified incubator with 5% CO2 at 37 °C.
(§3) The cells were seeded evenly (180 μL/well) in 96-well plates, at a density of 3000–5000 cells/well and incubated with serial dilutions of the compounds ranging from 0.1 to 100 μM. The MTT dye (4 mg/ml) was added after 72 h of incubation and incubated with the cells for an additional 4 h at 37 °C, allowing the viable cells to biotransform the yellow-colored MTT into dark-blue formazan crystals. Following incubation, the medium was aspirated, and the formazan crystals were dissolved by adding 100 μL of DMSO to each well. Cytation™ 5 and Cytation™ 7 multi-mode detector (Bio Tek Instruments, Winooski, VT, USA) was used to determine the absorbance readings at a wavelength of 570 nm. The IC50 values were determined based on 3 separate experiments, with each experiment carried out in triplicate.

HeLa = assay: MTT assay, HeLa; type: cell-based; settings: 72 h, read-out: IC50 ± SD Cervical HeLa
Protocol: Table S1. The antiproliferative efficacy of the DML1-DML12 compounds on the proliferation of cervical cancer cell line.
Figure S1. The efficacy of DML6 in HeLa cancer cells. The cell-viability curve produced by HeLa cells treated with
vehicle (0 μM), 5 or 10 μM of DML6 after 72 h of incubation. Cell survival was determined using the MTT assay. The
IC50 values are represented as the means ± SD of three independent experiments performed in triplicate. […]

HEK293 = assay: MTT assay, HEK293; type: cell-based, human; settings: read-out: IC50 ± SD Kidney HEK293
Protocol: as §1, §2, §3

DU145 = assay: MTT assay, DU145; type: cell-based; settings: Homo sapiens, DU-145, 72 h, read-out: IC50 ± SD Prostate DU145
Protocol: as §1, §2, §3

A549 = assay: MTT assay, A549; type: cell-based; settings: read-out: IC50 ± SD Lung A549
Protocol: as §1, §2, §3

OV2008 = assay: MTT assay, OV2008; type: cell-based; settings: 72 h, read-out: IC50 ± SD Cervical OV2008
Protocol: as §1, §2
(§4) The cells were seeded evenly (180 μL/well) in 96-well plates, at a density of 3000–5000 cells/well and incubated with serial dilutions of the compounds ranging from 0.1 to 100 μM. The MTT dye (4 mg/ml) was added after 72 h of incubation and incubated with the cells for an additional 4 h at 37 °C, allowing the viable cells to biotransform the yellow-colored MTT into dark-blue formazan crystals. Following incubation, the medium was aspirated, and the formazan crystals were dissolved by adding 100 μL of DMSO to each well. Cytation™ 5 and Cytation™ 7 multi-mode detector (Bio Tek Instruments, Winooski, VT, USA) was used to determine the absorbance readings at a wavelength of 570 nm. The IC50 values were determined based on 3 separate experiments, with each experiment carried out in triplicate. The selectivity of the compounds was determined by comparing their IC50 values in cervical cancer compared to the normal epithelial cell lines, HEK293, CHO, and CRL1459.

MDA-MB-231 = assay: MTT assay, MDA-MB-231; type: cell-based; settings: read-out: IC50 ± SD Breast MDA-MB-231
Protocol: as §1, §2, §3

cancer cell lines = assay: MTT assay, panel of cancer cell lines; type: cell-based
Protocol: as §1, §2, §4

Row | Compound | IC50 (LOVO; Homo sapiens, LoVo) [µM] | melting point [°C] | IC50 (HeLa) [µM] | IC50 (HeLa; Homo sapiens, HeLa) [µM] | IC50 (DU145) [µM] | IC50 (A549; Homo sapiens, A549, 72 h) [µM] | IC50 (MDA-MB-231; Homo sapiens, MDA-MB-231, 72 h) [µM] | IC50 (LOVO) [µM] | IC50 (A549; 72 h) [µM] | IC50 (MDA-MB-231; 72 h) [µM] | IC50 (HEK293; Homo sapiens, HEK293, 72 h) [µM] | IC50 (OV2008) [µM] | IC50 (HEK293; 72 h) [µM] | anti-proliferative efficacy in a wide range of cancer cell lines, compared to normal cells (cancer cell lines)
1 | CN(C)c1ccc(/C=C/C(=O)c2ccccn2)cc1 [DML1, (E)-3-[4-(dimethylamino)phenyl]-1-(pyridin-2-yl)prop-2-en-1-one] | > 100 | 126 | 70.7 ± 2.19 | > 70 | > 100 | > 100 | > 100 | – | – | – | > 100 | > 100 | – | –
2 | CCN(CC)c1ccc(/C=C/C(=O)c2ccccn2)cc1 [DML2, (E)-3-[4-(diethylamino)phenyl]-1-(pyridin-2-yl)prop-2-en-1-one] | > 100 | 142 | – | > 100 | > 100 | > 100 | > 100 | – | – | – | > 100 | > 100 | – | –
3 | COc1ccc(C(=O)/C=C/c2ccc(N(C)C)cc2)cc1 [DML3, (E)-3-[4-(dimethylamino)phenyl]-1-(4-methoxyphenyl)prop-2-en-1-one] | > 100 | – | – | > 100 | > 100 | > 100 | > 100 | – | – | – | > 100 | > 100 | – | –
4 | COc1ccc(C(=O)/C=C/c2ccc(N(C)C)cc2)cc1OC [DML4, (E)-1-[3,4-dimethoxyphenyl]-3-(4-(dimethylamino)phenyl)prop-2-en-1-one] | 66.3 ± 4.6 | 86 | – | 39.5 ± 11.4 | 22.5 ± 4.9 | 45 ± 22.6 | 26.7 ± 23.9 | 45 ± 22.6 | 66.3 ± 4.6 | 26.2 ± 23.9 | > 65 | 13.8 ± 7 | 68.5 ± 2.1 | moderate to good anti-proliferative efficacy
5 | COc1ccc(C2CC(c3ccc(N(C)C)cc3)=NN2c2ccccc2)cc1OC (stereo not shown) [DML10, 4-(5-(3,4-dimethoxyphenyl)-1-phenyl-4,5-dihydro-1H-pyrazol-3-yl)-N,N-dimethylaniline] | > 100 | 134 | – | > 100 | > 100 | > 100 | > 100 | – | – | – | > 100 | > 100 | – | –
6 | CCN(CC)c1ccc(C2=NN(c3ccccc3)C(c3ccc(OC)cc3)C2)cc1 (stereo not shown) [DML11, N,N-diethyl-4-(5-(4-methoxyphenyl)-1-phenyl-4,5-dihydro-1H-pyrazol-3-yl)aniline] | > 100 | 121 | – | > 100 | > 100 | > 100 | > 100 | – | – | – | > 100 | > 100 | – | –

Continued, in another order:

Row | IC50 (LOVO; Homo sapiens, LoVo) [µM] | melting point [°C] | IC50 (HeLa) [µM] | IC50 (HeLa; Homo sapiens, HeLa) [µM] | IC50 (DU145) [µM] | IC50 (A549; Homo sapiens, A549, 72 h) [µM] | IC50 (MDA-MB-231; Homo sapiens, MDA-MB-231, 72 h) [µM] | IC50 (LOVO) [µM] | IC50 (A549; 72 h) [µM] | IC50 (MDA-MB-231; 72 h) [µM] | Compound | IC50 (HEK293; Homo sapiens, HEK293, 72 h) [µM] | IC50 (OV2008) [µM] | IC50 (HEK293; 72 h) [µM] | anti-proliferative efficacy in a wide range of cancer cell lines, compared to normal cells (cancer cell lines)
7 | > 100 | 179 | – | > 100 | > 100 | > 100 | > 100 | – | – | – | CN(C)c1ccc(C2=NN(c3ccccc3)C(c3ccccn3)C2)cc1 (stereo not shown) [DML7, N,N-dimethyl-4-[1-phenyl-5-(pyridin-2-yl)-4,5-dihydro-1H-pyrazol-3-yl]aniline] | > 100 | > 100 | – | –
8 | > 100 | 188 | – | > 100 | > 100 | > 100 | > 100 | – | – | – | CCN(CC)c1ccc(C2=NN(c3ccccc3)C(c3ccccn3)C2)cc1 (stereo not shown) [DML8, N,N-diethyl-4-[1-phenyl-5-(pyridin-2-yl)-4,5-dihydro-1H-pyrazol-3-yl]aniline] | > 100 | > 100 | – | –
9 | > 100 | 147 | – | > 100 | > 100 | > 100 | > 100 | – | – | – | COc1ccc(C2CC(c3ccc(N(C)C)cc3)=NN2c2ccccc2)cc1 (stereo not shown) [DML9, 4-(5-[4-methoxyphenyl]-1-phenyl-4,5-dihydro-1H-pyrazol-3-yl)-N,N-dimethylaniline] | > 100 | > 100 | – | –
10 | > 100 | 124 | – | > 100 | > 100 | > 100 | > 100 | – | – | – | CN(C)c1ccc(C2=NN(c3ccccc3)C(c3ccc(Cl)cc3Cl)C2)cc1 (stereo not shown) [DML12, 4-(5-(2,4-dichlorophenyl)-1-phenyl-4,5-dihydro-1H-pyrazol-3-yl)-N,N-dimethylaniline] | > 100 | > 100 | – | –
